Assays:
Assay type in all cases: cell-based
[1] = system: human fibroblasts (MRC-5); assay: WST-1 viability assay, MRC-5 cells; conditions: MRC5, 72 h treatment, WST-1 assay, 2D culture, 0–50 μM
Method: (§1) In addition, the cytotoxic activity of compounds 17, 20, and 22–30 was assessed by the WST-1 viability assay using BLM (human melanoma) and MRC-5 (noncancerous human fibroblasts) cells growing in a monolayer (2D cultures, Table 2) after 72 h of treatment.
(§2) Human cells from melanoma (BLM) and human lung fibroblasts (MRC-5, Merck, USA) were used to evaluate in vitro cytotoxicity of the prepared compounds. The cells were maintained at the exponential phase of growth (passaging done by trypsin–EDTA solution) in DMEM and MEM, for BLM and MRC-5, respectively, with stable L-glutamine and supplemented with 10% fetal bovine serum (Thermo Fisher Scientific, USA). The cells were kept in an incubator at 37 °C, 5% CO2 in the atmosphere, and 95% humidity.
(§3) The compound cytotoxicity was determined by a WST-1 viability assay (Merck, USA). The amount of 5000 BLM and MRC-5 cells were seeded into individual wells of 96-well plates in 100 μL of cell cultivation media and maintained in an incubator for 16 h. After this period, the cells were treated with a concentration series (0–50 μM) of the tested compounds diluted in another 100 μL of cultivation media, which was added to the wells containing cells and incubated for 72 h. Then, BLM and MRC-5 cell viability was evaluated by WST-1 agent (5% v/v solution in phenol red-free DMEM media), i.e., the cell media was discarded and 100 μL of WST-1 solution was added. After 2 h incubation, the absorbance of formazan, derived from the WST-1 tetrazolium salt was determined spectrophotometrically at 450 nm (reference at 650 nm) by a UV-vis spectrophotometer (Bio-Rad, USA). Untreated cells, cells treated only with a vehicle, and cells treated with cytochalasin B (1) and D (2) served as controls. The measurement occurred in three independent repetitions each of which consisted of three technical replicates. The data were plotted as dose–response curves from which the half-maximal inhibitory concentrations (IC50) were calculated using AAT Bioquest.

[2] = system: human melanoma cell line BLM; assay: Spheroid invasion assay (migrastatic activity); conditions: 24 h; for rel. spheroid area: 10 µM, BLM spheroids in collagen, DMSO control 1.02
Method: Compounds 17, 20, and 22–30 were screened for their migrastatic activity using a spheroid invasion assay with the human melanoma cell line BLM.[46] Spheroids were formed and subsequently treated with cytochalasin analogues at a concentration of 10 μM for 24 h. CytB (1) and CytD (2) served as reference compounds for comparison. There was no significant increase in cell migration observed for any of the compounds tested. […] However, the effect was less profound than that of the reference compounds 1 and 2.
The spheroid invasion assay was performed following a previously published protocol.[63] Briefly, BLM cells were grown as spheroids using 3D Petri Dish (Microtissues). After 2 days of spheroid formation, 1.5 mg mL^−1 collagen solution (rat tail, collagen type I) was prepared (1.5 mg mL^−1 rat-tail collagen, 1× DMEM, 1% (v/v) FBS) and added at the bottom of a 96-well plate. Spheroids were embedded into the collagen (one spheroid per well) and covered with another layer of the gel. Collagen was polymerized at 37 °C and subsequently overlaid with a cultivation medium. Images of spheroids were taken with Leica TCS SP2 microscope (5×/0.15 dry objective; LAS X Life Science Microscope software) immediately after their seeding into collagen and again after 24 h. The area of the spheroids at 0 and 24 h was measured using FiJi (Rasband, W.S., ImageJ, NIH, Bethesda, MD, USA). Cellular invasiveness was determined as an increase in spheroid area within 24 h. Three independent experiments were conducted with at least 8 spheroids analysed in each experiment. Statistical analysis was performed in GraphPad using one-way ANOVA. For numeric data and representative images from this assay, see ESI, ^† Table S1 and Fig. S1.
Table S1: Spheroid invasion assay with BLM cell line at 10 µM concentration, 24 h.
Figure S1: Representative images of BLM cell spheroid invasion assay with or without
inhibitor. Images were taken at 0 h and 24 h. using a Leica TCS SP2 microscope (5x/0.15
dry objective). DMSO (first column) was used as a control. Scale bar 500 µm.

[3] = system: human melanoma cells (BLM); assay: WST-1 viability assay, BLM cells; conditions: for IC50: Homo sapiens, 72 h treatment, WST-1 assay, 2D culture, 0–50 μM; for selectivity index (SI): MRC-5 versus BLM, 72 h, WST-1
Method: as §1, §2, §3

Row | SMILES | IC50 [1] | rel. spheroid area [2] | IC50 [3] | selectivity index (SI) [3] | migrastatic activity (cell migration, in words) ([2]; 10 μM, BLM spheroid invasion)
1 | COC(=O)[C@@]12C(=O)N[C@@H](Cc3ccccc3)[C@@H]1[C@H](C)C(C)=C[C@@H]2CCOCCc1ccc(Cl)cc1 [Compound 17g, Methyl (1S,3aR,4S,7S,7aR)-1-benzyl-4-(2-(4-chlorophenethoxy)ethyl)-6,7-dimethyl-3-oxo-1,2,3,4,7,7a-hexahydro-3aH-isoindole-3a-carboxylate] | 22.2 ± 12.2 µM | 1.17 | 19.5 ± 1.23 µM | 1.1 | –
2 | COC(=O)[C@@]12C(=O)N[C@@H](Cc3ccccc3)[C@@H]1[C@H](C)[C@@]1(C)O[C@H]1[C@@H]2CCOCCc1ccccc1 [Compound 22a, Methyl (1aS,2R,2aS,5S,5aR,6S,6aR)-5-benzyl-6,6a-dimethyl-3-oxo-2-(2-phenethoxyethyl)octahydro-2aH-oxireno[2,3-f]isoindole-2a-carboxylate] | > 50 µM | 1.11 | > 50 µM | – | –
3 | COC(=O)[C@@]12C(=O)N[C@@H](Cc3ccccc3)[C@@H]1[C@H](C)C(C)=C[C@@H]2CCOCCc1ccc(F)cc1 [Compound 17d, Methyl (1S,3aR,4S,7S,7aR)-1-benzyl-4-(2-(4-fluorophenethoxy)ethyl)-6,7-dimethyl-3-oxo-1,2,3,4,7,7a-hexahydro-3aH-isoindole-3a-carboxylate] | 33.5 ± 4.98 µM | 1.24 | 27.7 ± 2.45 µM | 1.2 | –
4 | COC(=O)[C@@]12C(=O)N[C@@H](Cc3ccccc3)[C@@H]1[C@H](C)[C@@](C)(O)[C@@H](O)[C@@H]2CCOCCc1ccccc1 [Compound 23a, Methyl (1S,3aS,4R,5S,6R,7S,7aR)-1-benzyl-5,6-dihydroxy-6,7-dimethyl-3-oxo-4-(2-phenethoxyethyl)octahydro-3aH-isoindole-3a-carboxylate] | 20.9 ± 2.38 µM | 1.01 | 9.41 ± 2.52 µM | 2.2 | –
5 | C=C1[C@@H](C)[C@H]2[C@H](Cc3ccccc3)NC(=O)[C@@]2(C(=O)OC)[C@@H](CCOCCc2ccccc2)[C@@H]1OC(C)=O [Compound 27, Methyl (1S,3aS,4R,5S,7S,7aR)-5-acetoxy-1-benzyl-7-methyl-6-methylene-3-oxo-4-(2-phenethoxyethyl)octahydro-3aH-isoindole-3a-carboxylate] | > 50 µM | 0.89 | > 50 µM | – | inactive
6 | COC(=O)[C@@]12C(=O)N[C@@H](Cc3ccccc3)[C@@H]1[C@H](C)C(C)=C[C@@H]2CCOCCc1ccc(OC)cc1 [Compound 17b, Methyl (1S,3aR,4S,7S,7aR)-1-benzyl-4-(2-(4-methoxyphenethoxy)ethyl)-6,7-dimethyl-3-oxo-1,2,3,4,7,7a-hexahydro-3aH-isoindole-3a-carboxylate] | 40.5 ± 4.65 µM | 1.14 | 35.3 ± 4.75 µM | 1.1 | –
7 | COC(=O)[C@@]12C(=O)N[C@@H](Cc3ccccc3)[C@@H]1C(C)=C(C)[C@@H](OC(C)=O)[C@@H]2CCOCCc1ccccc1 [Compound 28, Methyl (1S,3aS,4R,5S,7aR)-5-acetoxy-1-benzyl-6,7-dimethyl-3-oxo-4-(2-phenethoxyethyl)-1,2,3,4,5,7a-hexahydro-3aH-isoindole-3a-carboxylate] | > 50 µM | 0.72 | > 50 µM | – | –
8 | COC(=O)[C@@]12C(=O)N[C@@H](Cc3ccccc3)[C@@H]1[C@H](C)C(C)=C[C@@H]2CCOCCc1ccc([N+](=O)[O-])cc1 [Compound 17j, Methyl (1S,3aR,4S,7S,7aR)-1-benzyl-6,7-dimethyl-4-(2-(4-nitrophenethoxy)ethyl)-3-oxo-1,2,3,4,7,7a-hexahydro-3aH-isoindole-3a-carboxylate] | 34.7 ± 6.18 µM | 1.12 | 35.2 ± 2.51 µM | 1.0 | –

— PMC10809383, “Synthesis and migrastatic activity of cytochalasin analogues lacking a macrocyclic moiety” (RSC Medicinal Chemistry, 2023)
